Assay results taken from ChEMBL document CHEMBL5512655, “Discovery of indolylacryloyl-derived oxacins as novel potential broad-spectrum antibacterial candidates” (Eur J Med Chem, 2024).
Values after ≈ are worked out from the molar mass of the structure shown.

What was measured:
Format in all cases: functional
[1] = system: Pseudomonas aeruginosa; assay: Antibacterial activity against Pseudomonas aeruginosa ATCC 27853 assessed as inhibition of bacterial growth measured after 24 hrs incubation
[2] = system: Staphylococcus aureus; assay: Antibacterial activity against Staphylococcus aureus assessed as inhibition of bacterial growth measured after 24 hrs incubation
[3] = system: Klebsiella pneumoniae; assay: Antibacterial activity against Klebsiella pneumonia assessed as inhibition of bacterial growth measured after 24 hrs incubation
[4] = system: Enterococcus faecalis; assay: Antibacterial activity against Enterococcus faecalis assessed as inhibition of bacterial growth measured after 24 hrs incubation
[5] = system: Escherichia coli; assay: Antibacterial activity against Escherichia coli ATCC 25922 assessed as inhibition of bacterial growth measured after 24 hrs incubation
[6] = system: Escherichia coli; assay: Antibacterial activity against Escherichia coli assessed as inhibition of bacterial growth measured after 24 hrs incubation
[7] = system: Staphylococcus aureus; assay: Antibacterial activity against Staphylococcus aureus ATCC 25923 assessed as inhibition of bacterial growth measured after 24 hrs incubation
[8] = system: Staphylococcus aureus; assay: Antibacterial activity against methicillin-resistant Staphylococcus aureus N315 assessed as inhibition of bacterial growth measured after 24 hrs incubation
[9] = system: Staphylococcus aureus; assay: Antibacterial activity against Staphylococcus aureus ATCC 29213 assessed as inhibition of bacterial growth measured after 24 hrs incubation
[10] = system: Pseudomonas aeruginosa; assay: Antibacterial activity against Pseudomonas aeruginosa assessed as inhibition of bacterial growth measured after 24 hrs incubation
[11] = system: Acinetobacter baumannii; assay: Antibacterial activity against Acinetobacter baumannii assessed as inhibition of bacterial growth measured after 24 hrs incubation

| Structure (SMILES) | MIC [1] [µg/mL] | MIC [2] [µg/mL] | MIC [3] [µg/mL] | MIC [4] [µg/mL] | MIC [5] [µg/mL] | MIC [6] [µg/mL] | MIC [7] [µg/mL] | MIC [8] [µg/mL] | MIC [9] [µg/mL] | MIC [10] [µg/mL] | MIC [11] [µg/mL] |
| --- | --- | --- | --- | --- | --- | --- | --- | --- | --- | --- | --- |
| CCn1cc(C(=O)O)c(=O)c2cc(F)c(N3CCN(C(=O)/C(C#N)=C/c4cn(Cc5ccc(Cl)cc5)c5ccccc45)CC3)cc21 | 1 (≈ 1.57 µM) | 64 (≈ 100 µM) | 0.5 (≈ 0.784 µM) | 32 (≈ 50.1 µM) | 4 (≈ 6.27 µM) | 1 (≈ 1.57 µM) | 16 (≈ 25.1 µM) | 32 (≈ 50.1 µM) | 16 (≈ 25.1 µM) | 0.5 (≈ 0.784 µM) | 0.5 (≈ 0.784 µM) |
| CCn1cc(C(=O)O)c(=O)c2cc(F)c(N3CCN(C(=O)/C(C#N)=C/c4cn(Cc5cccc(Cl)c5)c5ccccc45)CC3)cc21 | 0.25 (≈ 0.392 µM) | 32 (≈ 50.1 µM) | 0.5 (≈ 0.784 µM) | 8 (≈ 12.5 µM) | 8 (≈ 12.5 µM) | 16 (≈ 25.1 µM) | 2 (≈ 3.13 µM) | 1 (≈ 1.57 µM) | 4 (≈ 6.27 µM) | 32 (≈ 50.1 µM) | 8 (≈ 12.5 µM) |
| CCn1cc(C(=O)O)c(=O)c2cc(F)c(N3CCN(C(=O)/C(C#N)=C/c4c[nH]c5cccc(Cl)c45)CC3)cc21 | 1 (≈ 1.82 µM) | 1 (≈ 1.82 µM) | 0.5 (≈ 0.912 µM) | 8 (≈ 14.6 µM) | 2 (≈ 3.65 µM) | 4 (≈ 7.3 µM) | 4 (≈ 7.3 µM) | 8 (≈ 14.6 µM) | 2 (≈ 3.65 µM) | 32 (≈ 58.4 µM) | 2 (≈ 3.65 µM) |
| CCn1cc(C(=O)O)c(=O)c2cc(F)c(N3CCN(C(=O)/C(C#N)=C/c4c[nH]c5cc(C)ccc45)CC3)cc21 | 2 (≈ 3.79 µM) | 0.25 (≈ 0.474 µM) | 0.25 (≈ 0.474 µM) | 2 (≈ 3.79 µM) | 0.5 (≈ 0.948 µM) | 1 (≈ 1.9 µM) | 0.25 (≈ 0.474 µM) | 0.25 (≈ 0.474 µM) | 1 (≈ 1.9 µM) | 0.25 (≈ 0.474 µM) | 0.25 (≈ 0.474 µM) |
| CCn1cc(C(=O)O)c(=O)c2cc(F)c(N3CCN(C(=O)/C(C#N)=C/c4cn(CCCN5CCOCC5)c5ccccc45)CC3)cc21 | 1 (≈ 1.56 µM) | 2 (≈ 3.12 µM) | 0.25 (≈ 0.39 µM) | 1 (≈ 1.56 µM) | 1 (≈ 1.56 µM) | 1 (≈ 1.56 µM) | 0.25 (≈ 0.39 µM) | 0.25 (≈ 0.39 µM) | 0.25 (≈ 0.39 µM) | 0.25 (≈ 0.39 µM) | 0.5 (≈ 0.78 µM) |
| CCn1cc(C(=O)O)c(=O)c2cc(F)c(N3CCN(C(=O)/C(C#N)=C/c4cn(Cc5cccc(F)c5)c5ccccc45)CC3)cc21 | 1 (≈ 1.61 µM) | 32 (≈ 51.5 µM) | 1 (≈ 1.61 µM) | 16 (≈ 25.7 µM) | 0.25 (≈ 0.402 µM) | 0.25 (≈ 0.402 µM) | 16 (≈ 25.7 µM) | 16 (≈ 25.7 µM) | 8 (≈ 12.9 µM) | 2 (≈ 3.22 µM) | 0.5 (≈ 0.804 µM) |
| CCn1cc(C(=O)O)c(=O)c2cc(F)c(N3CCN(C(=O)/C(C#N)=C/c4c[nH]c5cc(F)ccc45)CC3)cc21 | 1 (≈ 1.88 µM) | 1 (≈ 1.88 µM) | 0.5 (≈ 0.941 µM) | 8 (≈ 15.1 µM) | 2 (≈ 3.76 µM) | 4 (≈ 7.53 µM) | 4 (≈ 7.53 µM) | 8 (≈ 15.1 µM) | 2 (≈ 3.76 µM) | 1 (≈ 1.88 µM) | 2 (≈ 3.76 µM) |
| CCn1cc(C(=O)O)c(=O)c2cc(F)c(N3CCN(C(=O)/C(C#N)=C/c4cn(Cc5ccccc5)c5ccccc45)CC3)cc21 | 1 (≈ 1.66 µM) | 4 (≈ 6.63 µM) | 0.5 (≈ 0.828 µM) | 4 (≈ 6.63 µM) | 2 (≈ 3.31 µM) | 1 (≈ 1.66 µM) | 4 (≈ 6.63 µM) | 4 (≈ 6.63 µM) | 4 (≈ 6.63 µM) | 256 (≈ 424 µM) | 2 (≈ 3.31 µM) |
| CCCCCCCCn1cc(C(=O)O)c(=O)c2cc(F)c(N3CCN(C(=O)/C(C#N)=C/c4cn(CC(=O)OCC)c5ccccc45)CC3)cc21 | 16 (≈ 23.4 µM) | 32 (≈ 46.8 µM) | 4 (≈ 5.85 µM) | 1 (≈ 1.46 µM) | 0.5 (≈ 0.731 µM) | 0.25 (≈ 0.366 µM) | 4 (≈ 5.85 µM) | 8 (≈ 11.7 µM) | 256 (≈ 374 µM) | 16 (≈ 23.4 µM) | 2 (≈ 2.92 µM) |
| CCOC(=O)Cn1cc(/C=C(\C#N)C(=O)N2CCN(c3cc4c(cc3F)c(=O)c(C(=O)O)cn4Cc3ccccc3)CC2)c2ccccc21 | 4 (≈ 6.05 µM) | 256 (≈ 387 µM) | 2 (≈ 3.02 µM) | 0.25 (≈ 0.378 µM) | 16 (≈ 24.2 µM) | 8 (≈ 12.1 µM) | 256 (≈ 387 µM) | 256 (≈ 387 µM) | 256 (≈ 387 µM) | 256 (≈ 387 µM) | 4 (≈ 6.05 µM) |
| CCn1cc(C(=O)O)c(=O)c2cc(F)c(N3CCN(C(=O)/C(C#N)=C/c4cn(CC(=O)O)c5ccccc45)CC3)cc21 | 0.5 (≈ 0.875 µM) | 2 (≈ 3.5 µM) | 0.25 (≈ 0.437 µM) | 0.5 (≈ 0.875 µM) | 0.5 (≈ 0.875 µM) | 0.5 (≈ 0.875 µM) | 0.5 (≈ 0.875 µM) | 0.5 (≈ 0.875 µM) | 1 (≈ 1.75 µM) | 0.5 (≈ 0.875 µM) | 0.25 (≈ 0.437 µM) |
| CCn1cc(C(=O)O)c(=O)c2cc(F)c(N3CCN(C(=O)/C(C#N)=C/c4cn(CCN5CCOCC5)c5ccccc45)CC3)cc21 | 1 (≈ 1.6 µM) | 0.5 (≈ 0.798 µM) | 2 (≈ 3.19 µM) | 0.25 (≈ 0.399 µM) | 2 (≈ 3.19 µM) | 1 (≈ 1.6 µM) | 4 (≈ 6.38 µM) | 0.25 (≈ 0.399 µM) | 0.5 (≈ 0.798 µM) | 1 (≈ 1.6 µM) | 0.5 (≈ 0.798 µM) |
